This is an account of results in PMC6675120, “Potent and selective inhibitors for M32 metallocarboxypeptidases identified from high-throughput screening of anti-kinetoplastid chemical boxes” (PLoS Neglected Tropical Diseases, 2019).

The structures appear in SMILES notation.

Assay [1] addresses TcMCP-1 (Trypanosoma cruzi, UniProt Q6ZXC0). The experiment in a line: Continuous fluorogenic (FRET) TcMCP-1 assay with Abz-LKFK(Dnp)-OH, primary and secondary screening. As to conditions: for TcMCP-1 Hill Slope: four-parameter Hill fit of dose-response curve; for TcMCP-1 2º/1º ratio: secondary (31,5 µM) / primary (25 µM) inhibition; for TcMCP-1 Primary screening Inhibition (%): single inhibitor concentration 25 µM; for TcMCP-1 Secondary screening Inhibition (%): single inhibitor concentration 31,5 µM. Type of assay: biochemical. On the procedure: (§1) TcMCP-1 (MEROPS ID: M32.003) and TbMCP-1 were expressed as GST fusion proteins in E. coli BL21 (DE3) Codon Plus and purified as previously described.
(§2) TbMCP-1 and TcMCP-1 activities were assayed fluorometrically with Abz-RFFK(Dnp)-OH and Abz-LKFK(Dnp)-OH substrates, respectively, in 100 mM MOPS pH 7,2 containing 0,01% Triton X-100. Assays were performed in solid black 384-well plates (final reaction volume ~80 μL) and the hydrolysis of the K(Dnp)-OH group was monitored continuously at 30 °C with a Beckman Coulter DTX 880 Multimode Reader (Radnor, Pennsylvania, USA) using standard 320 nm excitation and 420 nm emission filter set.
(§3) In all cases, EDTA (final concentration 31,25 mM) was used as positive inhibition control.
(§4) Then, 40 μL of 100 mM MOPS, 0,01% Triton X-100 pH 7,2 containing TbMCP-1 (2,50 nM) or TcMCP-1 (0,34 nM) were added to each well, plates were homogenized (30 seg, orbital, medium intensity) and each well subjected to a single autofluorescence read (ex/em = 320/420 nm). Plates were incubated in darkness for 15 min at 30 °C and then 40 μL of Abz-RFFK(Dnp)-OH (4 μM) or Abz-LKFK(Dnp)-OH (0,8 μM) in assay buffer were added to each well to start the reaction. After homogenization (30 seg, orbital, medium intensity), the fluorescence of the Abz group (ortho-aminobenzoic acid) (ex/em = 320/420 nm) was acquired kinetically for each well (8 read cycles, one cycle every 300 seconds). Considering our previous experiences, the auto-fluorescent cut-off was arbitrarily set at 2x10^5 RFU to discard highly interfering compounds. All compounds were assayed in singlet (without replicates) due to the limited availability of stocks.
(§5) Raw screening measurements were used to determine the slope (dF/dt) of progression curves by linear regression for control and non-interfering compound wells. In the case of control-dependent hit selection criteria, percent inhibition percentage (%Inh) was calculated for each compound according to the following equation: Inh=100∙[1−(dF/dt^WELL−μ^C−)/(μ^C+−μ^C−)] (1) where dF/dt^WELL represents the slope of each compound well and μ^C+ and μ^C− the average of MCP (no-inhibition) and substrate (no-enzyme) controls, respectively.
(§6) Compounds selected from primary screening were re-tested in a dose-response manner (final concentration ranging from 7,5 to 62,5 μM) using identical assay conditions. To avoid any positional and/or association bias, we randomly defined the row position for each compound. One μL of compounds stock (10 mM in DMSO) and EDTA (31,25 mM) were added to the first well of column 1, followed by addition of 40 μL of 100 mM MOPS, 0,01% Triton X-100 pH 7,2 buffer. After addition of 20 μL of the same buffer to subsequent wells of the plate, 22 serial 2-fold dilutions were made horizontally. The last two positions of every row were used, alternatively, for C^+ and C^− controls to reduce any positional and/or association bias. Then, 20 μL of activity buffer containing TbMCP-1 or TcMCP-1 were added to each well, except for those corresponding to C^−; completed with 20 μL of activity buffer. After homogenization, 15 minutes of incubation at 30°C and autofluorescence measurement, the substrate (in activity buffer) was added to the previous mix. Data collection and processing were performed exactly as described above. Percentage of M32 MCPs residual activity was calculated for each condition according to the following equation: %Res.Act^MCP=100∙[(dF/dt^WELL−μ^C−)/(μ^C+−μ^C−)] (2) where dF/dt^WELL represents the slope of each compound well and μ^C+ and μ^C− the average of MCP (no-inhibition) and substrate (no-enzyme) controls, respectively.

For assay [2], the target named is TbMCP-1 (Trypanosoma brucei, UniProt Q386R0). Kind of assay: Continuous fluorogenic (FRET) TbMCP-1 assay with Abz-RFFK(Dnp)-OH, primary and secondary screening. Type of assay: biochemical. As to conditions: for TbMCP-1 Hill Slope: four-parameter Hill fit of dose-response curve; for TbMCP-1 2º/1º ratio: secondary (31,5 µM) / primary (25 µM) inhibition; for TbMCP-1 Primary screening Inhibition (%): single inhibitor concentration 25 µM; for TbMCP-1 Secondary screening Inhibition (%): single inhibitor concentration 31,5 µM. The procedure: as §1, §2, §3, §4, §5
as §6, with “To” for “Compounds selected from primary screening were re-tested in a dose-response manner (final concentration ranging from 7,5 to 62,5 μM) using identical assay conditions. To”

Chain of TbMCP-1 (Q386R0 entry or part of it): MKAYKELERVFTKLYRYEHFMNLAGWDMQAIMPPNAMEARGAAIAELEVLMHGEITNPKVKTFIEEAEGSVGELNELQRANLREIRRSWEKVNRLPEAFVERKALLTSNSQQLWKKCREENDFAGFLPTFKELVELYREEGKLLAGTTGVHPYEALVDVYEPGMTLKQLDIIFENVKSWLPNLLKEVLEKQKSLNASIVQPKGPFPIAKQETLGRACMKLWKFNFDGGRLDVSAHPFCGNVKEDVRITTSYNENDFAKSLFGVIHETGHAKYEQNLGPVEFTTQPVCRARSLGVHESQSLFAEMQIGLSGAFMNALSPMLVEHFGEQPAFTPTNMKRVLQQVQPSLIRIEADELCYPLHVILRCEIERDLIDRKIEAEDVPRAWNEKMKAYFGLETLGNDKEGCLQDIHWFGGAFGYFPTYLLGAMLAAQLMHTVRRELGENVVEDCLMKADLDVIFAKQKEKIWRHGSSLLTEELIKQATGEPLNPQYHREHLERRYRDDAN
Chain of TcMCP-1 (Q6ZXC0 entry or part of it): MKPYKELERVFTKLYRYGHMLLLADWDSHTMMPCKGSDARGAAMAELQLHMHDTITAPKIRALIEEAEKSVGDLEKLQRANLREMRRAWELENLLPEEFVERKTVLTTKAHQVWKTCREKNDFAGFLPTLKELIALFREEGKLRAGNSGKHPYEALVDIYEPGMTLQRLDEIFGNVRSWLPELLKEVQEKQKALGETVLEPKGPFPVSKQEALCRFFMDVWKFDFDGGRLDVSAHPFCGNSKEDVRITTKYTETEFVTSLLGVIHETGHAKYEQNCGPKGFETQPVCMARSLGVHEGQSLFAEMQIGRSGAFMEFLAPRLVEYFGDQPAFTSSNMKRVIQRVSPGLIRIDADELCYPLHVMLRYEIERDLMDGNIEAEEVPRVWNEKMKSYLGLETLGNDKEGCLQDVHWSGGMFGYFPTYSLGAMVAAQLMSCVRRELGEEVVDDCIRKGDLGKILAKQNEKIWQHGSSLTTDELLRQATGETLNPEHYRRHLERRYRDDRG

Usually IC50 stands for the concentration that gives 50% inhibition. For `COc1ccc2ncc(Cl)c(CCN3CC[C@@H](NCc4cc5c(cn4)OCS5)[C@H](O)C3)c2n1` [TCMDC-143513], in assay [1], the IC50 was 13.5 µM, the “TcMCP-1 Hill Slope” value was -0,9734, the “TcMCP-1 2º/1º ratio” value is reported as 1,07 and the “TcMCP-1 Primary screening Inhibition (%)” value is recorded as 65,65%. The “TcMCP-1 Secondary screening Inhibition (%)” value in assay [1] is reported as 70,48%. Moreover, in assay [2], the IC50 was found to be 28.3 µM, the “TbMCP-1 Hill Slope” value is -0,8371, the “TbMCP-1 2º/1º ratio” value is listed as 0,76 and the “TbMCP-1 Primary screening Inhibition (%)” value is listed as 56,08%. For the same molecule, in assay [2], the “TbMCP-1 Secondary screening Inhibition (%)” value is 42,64%.
`C[C@@H](Oc1cc(-n2cnc3ccc(O[C@H]4CCNC4)cc32)sc1C(N)=O)c1ccccc1Cl` [TCMDC-143515]: in assay [1], the IC50 was found to be 21.8 µM, the “TcMCP-1 Hill Slope” value is reported as -1,149, the “TcMCP-1 2º/1º ratio” value is on record as 1,02 and the “TcMCP-1 Primary screening Inhibition (%)” value is given as 54,26%. The “TcMCP-1 Secondary screening Inhibition (%)” value in assay [1] is given as 55,47%. In assay [2], inhibition was half-maximal at 31.7 µM (IC50), the “TbMCP-1 Hill Slope” value was -0,8447, the “TbMCP-1 2º/1º ratio” value is 1,26 and the “TbMCP-1 Primary screening Inhibition (%)” value is given as 40,42%. Besides, the “TbMCP-1 Secondary screening Inhibition (%)” value in assay [2] is recorded as 50,90%.
For the molecule `CN(CC1CCCO1)S(=O)(=O)c1ccc(C(=O)Nc2nc(-c3ccccn3)cs2)cc1` (stereo not drawn) [TCMDC-143551], in assay [1], it took 13.8 µM to reach half-maximal inhibition (IC50), the “TcMCP-1 Hill Slope” value is recorded as -1,834, the “TcMCP-1 2º/1º ratio” value is 1,14 and the “TcMCP-1 Primary screening Inhibition (%)” value is 65,04%. Moreover, in assay [1], the “TcMCP-1 Secondary screening Inhibition (%)” value is 74,11%. Besides, in assay [2], the IC50 was determined as 34.5 µM, the “TbMCP-1 Hill Slope” value is listed as -1,562, the “TbMCP-1 2º/1º ratio” value is on record as 0,99 and the “TbMCP-1 Primary screening Inhibition (%)” value is 42,28%. The “TbMCP-1 Secondary screening Inhibition (%)” value in assay [2] is given as 41,97%.
In the case of `Cc1cc(C)c(C#N)c(SCC(=O)c2ccc3c(c2)OCO3)n1` [TCMDC-143625], in assay [1], the “TcMCP-1 2º/1º ratio” value is reported as 0,45, the “TcMCP-1 Primary screening Inhibition (%)” value was 43,83% and the “TcMCP-1 Secondary screening Inhibition (%)” value is on record as 19,89%. Moreover, in assay [2], the “TbMCP-1 2º/1º ratio” value is 0,35, the “TbMCP-1 Primary screening Inhibition (%)” value is reported as 49,55% and the “TbMCP-1 Secondary screening Inhibition (%)” value is recorded as 17,11%.
